# How the values were obtained:
# [1] = target: T1, Mitogen-activated protein kinase kinase kinase 7 (Homo sapiens, UniProt O43318); test: Inhibition of TAK1 in human HCT116 cells assessed as inhibition of TNF-alpha-stimulated JNK phosphorylation; assay type: cell-based, HCT-116
# T1 sequence (O43318 whole entry): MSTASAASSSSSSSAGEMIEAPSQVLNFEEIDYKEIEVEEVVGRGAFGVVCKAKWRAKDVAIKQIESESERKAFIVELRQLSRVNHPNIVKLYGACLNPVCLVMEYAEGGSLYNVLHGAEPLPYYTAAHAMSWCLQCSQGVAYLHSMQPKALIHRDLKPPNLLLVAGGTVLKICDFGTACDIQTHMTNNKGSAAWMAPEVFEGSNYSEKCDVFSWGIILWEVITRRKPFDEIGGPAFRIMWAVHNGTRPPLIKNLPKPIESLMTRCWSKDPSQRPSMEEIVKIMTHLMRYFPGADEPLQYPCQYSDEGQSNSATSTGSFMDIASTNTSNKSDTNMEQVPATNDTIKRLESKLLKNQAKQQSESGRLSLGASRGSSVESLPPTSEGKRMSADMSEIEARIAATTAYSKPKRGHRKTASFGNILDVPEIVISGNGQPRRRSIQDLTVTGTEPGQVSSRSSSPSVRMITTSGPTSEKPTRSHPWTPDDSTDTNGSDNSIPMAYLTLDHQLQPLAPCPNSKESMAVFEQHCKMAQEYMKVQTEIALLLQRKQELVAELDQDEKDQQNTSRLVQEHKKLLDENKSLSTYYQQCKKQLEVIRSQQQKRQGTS
# TAK1/TAB1 = TAK1/TAB1 (Homo sapiens, UniProt O43318); test: Inhibition of truncated TAK1-TAB1(unknown origin) using MKK7 as substrate by ALPHAScreen assay in presence of ATP; assay type: protein-complex assay
# [2] = Metabolic stability in mouse liver microsomes assessed as extraction ratio; assay type: ADME, Microsome; conditions: read-out: ERH
# [3] = Metabolic stability in human liver microsomes assessed as extraction ratio; assay type: ADME, Microsome; conditions: read-out: ERH
# [4] = Permeability of the compound by PAMPA; assay type: ADME; conditions: read-out: permeability
# [5] = AUC (0 to infinity) in mouse at 20 mg/kg, po; assay type: ADME, organism-based; design: time infinity, dose 20 mg/kg, route oral; conditions: plasma
# [6] = Oral bioavailability in mouse at 20 mg/kg; assay type: ADME, organism-based; conditions: in vivo
# [7] = Volume of distribution at steady state in mouse at 2 mg/kg, iv; assay type: ADME, organism-based; design: dose 2 mg/kg, route intravenous; conditions: in vivo, read-out: Vdss
# [8] = Cmax in mouse at 20 mg/kg, po; assay type: ADME, organism-based; design: dose 20 mg/kg, route oral; conditions: in vivo
# [9] = Clearance in mouse at 2 mg/kg, iv; assay type: ADME, organism-based; design: dose 2 mg/kg, route intravenous; conditions: in vivo
# [10] = Half life in mouse at 2 mg/kg, iv; assay type: ADME, organism-based; design: dose 2 mg/kg, route intravenous; conditions: in vivo
# [11] = AUC (0 to infinity) in mouse at 2 mg/kg, iv; assay type: ADME, organism-based; design: time infinity, dose 2 mg/kg, route intravenous; conditions: plasma
# TAK1/TAB1, sequence (Q15750 whole entry, one chain of several, the tested form may be a part): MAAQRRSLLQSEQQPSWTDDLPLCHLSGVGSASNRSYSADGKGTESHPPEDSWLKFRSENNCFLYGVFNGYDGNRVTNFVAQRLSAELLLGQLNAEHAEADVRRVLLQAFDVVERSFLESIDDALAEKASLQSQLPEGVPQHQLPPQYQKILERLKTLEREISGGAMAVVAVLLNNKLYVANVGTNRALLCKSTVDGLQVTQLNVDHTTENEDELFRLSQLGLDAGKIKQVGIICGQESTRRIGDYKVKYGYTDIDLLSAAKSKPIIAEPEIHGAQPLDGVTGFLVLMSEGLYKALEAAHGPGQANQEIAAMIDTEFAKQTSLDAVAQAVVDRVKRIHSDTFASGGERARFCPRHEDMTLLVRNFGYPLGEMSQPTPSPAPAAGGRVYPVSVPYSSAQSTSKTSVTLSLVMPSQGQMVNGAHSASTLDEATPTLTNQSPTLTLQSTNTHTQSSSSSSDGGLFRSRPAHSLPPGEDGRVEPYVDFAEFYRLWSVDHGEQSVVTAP
IC50 [1] [µM],IC50 (TAK1/TAB1) [µM],Structure (SMILES),other results
3.1,0.53,CC(=O)N1CCC(n2cc(-c3cnc(N)c4oc(-c5cccc(C(N)=O)c5)cc34)cn2)CC1,–
1.2,4.3,CSc1cccc(-c2cc3c(-c4cnn(C5CCN(C(C)=O)CC5)c4)cnc(N)c3o2)c1,–
1.2,1,CC(=O)N1CCC(n2cc(-c3cnc(N)c4oc(-c5cccc6ccccc56)cc34)cn2)CC1,hepatic extraction ratio [2]: 0.77; hepatic extraction ratio [3]: 0.66
–,4.9,CC(=O)N1CCC(n2cc(-c3cnc(N)c4oc(-c5ccc(NS(C)(=O)=O)cc5)cc34)cn2)CC1,–
–,1.8,CC(=O)N1CCC(n2cc(-c3cnc(N)c4oc(-c5cccc(S(N)(=O)=O)c5)cc34)cn2)CC1,–
8,3.5,CC(=O)N1CCC(n2cc(-c3cnc(N)c4oc(-c5ccc(OC(F)(F)F)cc5)cc34)cn2)CC1,–
2.8,2.5,CC(=O)N1CCC(n2cc(-c3cnc(N)c4oc(-c5ccc(C#N)cc5)cc34)cn2)CC1,–
1.1,4.9,CC(=O)N1CCC(n2cc(-c3cnc(N)c4oc(-c5cccc(S(C)(=O)=O)c5)cc34)cn2)CC1,–
–,2.7,Nc1ncc(-c2cnn(C3CCNCC3)c2)c2cc(-c3ccccc3)oc12,Papp [4]: < 1 ×10⁻⁶ cm/s
–,1.2,CC(=O)N1CCC(n2cc(-c3cnc(N)c4oc(-c5cnco5)cc34)cn2)CC1,–
1.9,1.5,CC(=O)N1CCC(n2cc(-c3cnc(N)c4oc(-c5ccc(CC#N)cc5)cc34)cn2)CC1,–
9.1,0.13,CC(=O)N1CCC(n2cc(-c3cnc(N)c4oc(-c5cn[nH]c5)cc34)cn2)CC1,–
3.1,5.4,CC(=O)c1ccccc1-c1cc2c(-c3cnn(C4CCN(C(C)=O)CC4)c3)cnc(N)c2o1,–
1.5,0.75,CC(=O)N1CCC(n2cc(-c3cnc(N)c4oc(-c5ccccc5CO)cc34)cn2)CC1,–
0.5,0.43,CSc1ccccc1-c1cc2c(-c3cnn(C4CCN(C(C)=O)CC4)c3)cnc(N)c2o1,–
9,3.2,CC(=O)Nc1cccc(-c2cc3c(-c4cnn(C5CCN(C(C)=O)CC5)c4)cnc(N)c3o2)c1,–
–,1.4,CC(=O)N1CCC(n2cc(-c3cnc(N)c4oc(-c5cnc6cnccn56)cc34)cn2)CC1,hepatic extraction ratio [2]: 0.52; hepatic extraction ratio [3]: 0
0.47,0.85,CC(=O)N1CCC(n2cc(-c3cnc(N)c4oc(-c5cccc(CO)c5)cc34)cn2)CC1,–
0.2,0.089,CC(=O)N1CCC(n2cc(-c3cnc(N)c4oc(-c5cccc([N+](=O)[O-])c5)cc34)cn2)CC1,–
1,2.8,CC(=O)c1cccc(-c2cc3c(-c4cnn(C5CCN(C(C)=O)CC5)c4)cnc(N)c3o2)c1,–
5.2,17.5,CSc1ccc(-c2cc3c(-c4cnn(C5CCN(C(C)=O)CC5)c4)cnc(N)c3o2)cc1,–
4,0.79,CC(=O)N1CCC(n2cc(-c3cnc(N)c4oc(-c5cccc(CN)c5)cc34)cn2)CC1,–

# Continued, compound first:
Structure (SMILES),IC50 [1] [µM],IC50 (TAK1/TAB1) [µM],other results
CC(=O)N1CCC(n2cc(-c3cnc(N)c4oc(-c5cn(C)c6cnccc56)cc34)cn2)CC1,0.34,0.018,hepatic extraction ratio [2]: 0.91; hepatic extraction ratio [3]: 0.64
CC(=O)N1CCC(n2cc(-c3cnc(N)c4oc(-c5ccccc5C#N)cc34)cn2)CC1,1.7,0.56,–
CC(=O)N1CCC(n2cc(-c3cnc(N)c4oc(C5=CCCC5)cc34)cn2)CC1,–,1.2,–
CC(=O)N1CCC(n2cc(-c3cnc(N)c4oc(-c5csc6ccccc56)cc34)cn2)CC1,0.44,0.34,hepatic extraction ratio [2]: 0.85; hepatic extraction ratio [3]: 0.68
CC(=O)N1CCC(n2cc(-c3cnc(N)c4oc(-c5cccc(OC(F)(F)F)c5)cc34)cn2)CC1,1.8,3.5,–
CC(=O)N1CCC(n2cc(-c3cnc(N)c4oc(-c5ccccc5CC#N)cc34)cn2)CC1,0.53,0.25,–
CC(=O)N1CCC(n2cc(-c3cnc(N)c4oc(-c5ccc(CO)cc5)cc34)cn2)CC1,4.4,2.8,–
COc1cccc(-c2cc3c(-c4cnn(C5CCN(C(C)=O)CC5)c4)cnc(N)c3o2)c1,1.2,1.8,–
CC(=O)N1CCC(n2cc(-c3cnc(N)c4oc(C5=CCCCC5)cc34)cn2)CC1,–,0.46,–
CC(=O)N1CCC(n2cc(-c3cnc(N)c4oc(-c5cccnc5)cc34)cn2)CC1,–,0.71,–
CC(=O)N1CCC(n2cc(-c3cnc(N)c4oc(-c5ccccc5)cc34)cn2)CC1,0.52,1.1,–
CC(=O)N1CCC(n2cc(-c3cnc(N)c4oc(-c5cnsc5)cc34)cn2)CC1,–,0.88,–
CC(=O)N1CCC(n2cc(-c3cnc(N)c4oc(-c5ccccc5C(F)(F)F)cc34)cn2)CC1,–,> 30,–
CC(=O)N1CCC(n2cc(-c3cnc(N)c4oc(C5CCCCC5)cc34)cn2)CC1,–,0.65,–
CC(=O)N1CCC(n2cc(-c3cnc(N)c4oc(-c5cccc(N)c5)cc34)cn2)CC1,0.51,0.77,–
CC(=O)N1CCC(n2cc(-c3cnc(N)c4oc(-c5cccc(C#N)c5)cc34)cn2)CC1,0.37,0.25,–
CC(=O)N1CCC(n2cc(-c3cnc(N)c4oc(-c5ccc(O)cc5)cc34)cn2)CC1,0.5,0.27,–
CC(=O)N1CCC(n2cc(-c3cnc(N)c4oc(-c5csc6cnccc56)cc34)cn2)CC1,0.11,0.03,hepatic extraction ratio [2]: 0.72; hepatic extraction ratio [3]: 0.68
CC(=O)N1CCC(n2cc(-c3cnc(N)c4oc(-c5ccc(C(=O)N(C)C)cc5)cc34)cn2)CC1,–,> 30,–

Structure (SMILES),IC50 [1] [µM],IC50 (TAK1/TAB1) [µM],other results
CC(=O)N1CCC(n2cc(-c3cnc(N)c4oc(-c5ccsc5)cc34)cn2)CC1,–,0.48,–
CC(=O)N1CCC(n2cc(-c3cnc(N)c4oc(-c5cccc6nnsc56)cc34)cn2)CC1,0.012,0.004,hepatic extraction ratio [2]: 0.7; hepatic extraction ratio [3]: 0.68
Nc1ncc(-c2cnn(C3CCNCC3)c2)c2cc(-c3cccc4ccsc34)oc12,–,1.2,Papp [4]: < 1 ×10⁻⁶ cm/s
CC(=O)N1CCC(n2cc(-c3cnc(N)c4oc(-c5cccc(S(=O)(=O)N(C)C)c5)cc34)cn2)CC1,1.1,1.4,–
COCc1ccccc1-c1cc2c(-c3cnn(C4CCN(C(C)=O)CC4)c3)cnc(N)c2o1,1.8,1.4,–
CC(=O)N1CCC(n2cc(-c3cnc(N)c4oc(-c5cccc6cnsc56)cc34)cn2)CC1,0.044,0.023,AUC(0-inf) [5]: 285 ng·h/mL; bioavailability [6]: 11%; Vd [7]: 2.5 L/kg; Cmax [8]: 1600 nM; clearance [9]: 128 mL/min/kg; half-life [10]: 30 min; AUC(0-inf) [11]: 261 ng·h/mL; hepatic extraction ratio [2]: 0.84; hepatic extraction ratio [3]: 0.73
CC(=O)N1CCC(n2cc(-c3cnc(N)c4oc(-c5cccc(C(F)(F)F)c5)cc34)cn2)CC1,1.6,2.8,–
CC(=O)Nc1ccccc1-c1cc2c(-c3cnn(C4CCN(C(C)=O)CC4)c3)cnc(N)c2o1,–,> 30,–
CC(=O)N1CCC(n2cc(-c3cnc(N)c4oc(-c5ccccc5C(N)=O)cc34)cn2)CC1,4.5,6,–
COCCOc1cccc(-c2cc3c(-c4cnn(C5CCN(C(C)=O)CC5)c4)cnc(N)c3o2)c1,2.7,3.2,–
CC(=O)N1CCC(n2cc(-c3cnc(N)c4oc(-c5cccc(N(C)C)c5)cc34)cn2)CC1,0.69,2.4,–
CC(=O)N1CCC(n2cc(-c3cnc(N)c4oc(C5CCCC5)cc34)cn2)CC1,–,2.1,–
CC(=O)N1CCC(n2cc(-c3cnc(N)c4oc(-c5ccc(S(C)(=O)=O)cc5)cc34)cn2)CC1,> 20,25.7,–
CC(=O)N1CCC(n2cc(-c3cnc(N)c4oc(-c5cccc6ncsc56)cc34)cn2)CC1,0.01,0.013,hepatic extraction ratio [2]: 0.68; hepatic extraction ratio [3]: 0.62
CC(=O)N1CCC(n2cc(-c3cnc(N)c4oc(C5=CCNCC5)cc34)cn2)CC1,–,0.8,–
CC(=O)N1CCC(n2cc(-c3cnc(N)c4oc(-c5cccc(O)c5)cc34)cn2)CC1,0.61,0.061,–
CC(=O)N1CCC(n2cc(-c3cnc(N)c4oc(-c5ccc(N)cc5)cc34)cn2)CC1,1,1.8,–
CC(=O)N1CCC(n2cc(-c3cnc(N)c4oc(-c5cnn(C)c5)cc34)cn2)CC1,–,1.6,–

# From ChEMBL document CHEMBL2407040, “Discovery and optimization of 7-aminofuro[2,3-c]pyridine inhibitors of TAK1” (Bioorg Med Chem Lett, 2013)
